Values of other authors, collected in US20030219799A1, “Cancer-linked gene as target for chemotherapy” (priority 2002, published 2003).

Tests used:
[1] = in vitro
[2] = in vivo
[3] = test system: cultured cell lines; details: versus cis-platin and doxorubicin
[4] = test system: cultured colon cancer cells
[5] = test system: subcutaneous COLO 205 human colon tumor xenografts; details: mice, subcutaneous COLO 205 xenografts, doses well below the maximum tolerated dose

Question: Which “cytotoxicity relative to maytansine” value [1] does the source give for `COc1cc2cc(c1Cl)N(C)C(=O)C[C@H](OC(=O)[C@H](C)N(C)C(=O)CCS)[C@]1(C)O[C@H]1[C@H](C)[C@@H]1C[C@@](O)(NC(=O)O1)[C@H](OC)/C=C/C=C(\C)C2` [DM1] here?
Answer: up to 10 fold

Question: Which “value in human clinical trials” value [2] does the source give for `COc1cc2cc(c1Cl)N(C)C(=O)C[C@H](OC(=O)[C@H](C)N(C)C(C)=O)[C@]1(C)O[C@H]1[C@H](C)[C@@H]1C[C@@](O)(NC(=O)O1)[C@H](OC)/C=C/C=C(\C)C2` [Maytansine] here?
Answer: little value

Question: With `Cc1c[nH]c2c1[C@@]13C[C@@H]1CN(C(=O)c1cc4cc(NC(=O)c5cc6ccccc6o5)ccc4[nH]1)C3=CC2=O` [Adozelesin] as the molecule, how does the “toxicity to cultured cell lines relative to other DNA interacting agents” value [3] read?
Answer: about 1,000 fold

B1: immunoconjugate of the maytansinoid cytotoxin DM1 and C242 antibody: DM1 linked to C242, a murine IgG1 with affinity for a mucin-like glycoprotein of human colorectal cancers (conjugate, chains of the INN, looked up)
VH: QVQLVQSGAEVKKPGETVKISCKASDYTFTYYGMNWVKQAPGQGLKWMGWIDTTTGEPTYAQKFQGRIAFSLETSASTAYLQIKSLKSEDTATYFCARRGPYNWYFDVWGQGTTVTVSS
VL: DIVMTQSPLSVPVTPGEPVSISCRSSKSLLHSNGNTYLYWFLQRPGQSPQLLIYRMSNLVSGVPDRFSGSGSGTAFTLRISRVEAEDVGVYYCLQHLEYPFTFGPGTKLELK
modifications: DM1 maytansinoid conjugate
Question: For B1, which “cytotoxicity against cultured colon cancer cells” value [4] is on record?
Answer: highly cytotoxic

Question: And the “anti-tumor effects in vivo” value [5]?
Answer: anti-tumor effects
